Measurements from US8530701B2, “High purity 2-[4-(3- OR 2-fluorobenzyloxy)benzylamino]propanamides and methods of use thereof” (priority 2007, dated 2013).
Read-outs that look alike come from different tables or passages of the source. Each block holds one compound with its values, some of them ahead of it.

What was measured:
CYP1A2 = biological target: T1, CYP1A2 (Homo sapiens, UniProt P05177); assay: in vitro; assay type: in vitro ADME
T1 construct: purchased Gentest
T1 sequence (P05177 1-516): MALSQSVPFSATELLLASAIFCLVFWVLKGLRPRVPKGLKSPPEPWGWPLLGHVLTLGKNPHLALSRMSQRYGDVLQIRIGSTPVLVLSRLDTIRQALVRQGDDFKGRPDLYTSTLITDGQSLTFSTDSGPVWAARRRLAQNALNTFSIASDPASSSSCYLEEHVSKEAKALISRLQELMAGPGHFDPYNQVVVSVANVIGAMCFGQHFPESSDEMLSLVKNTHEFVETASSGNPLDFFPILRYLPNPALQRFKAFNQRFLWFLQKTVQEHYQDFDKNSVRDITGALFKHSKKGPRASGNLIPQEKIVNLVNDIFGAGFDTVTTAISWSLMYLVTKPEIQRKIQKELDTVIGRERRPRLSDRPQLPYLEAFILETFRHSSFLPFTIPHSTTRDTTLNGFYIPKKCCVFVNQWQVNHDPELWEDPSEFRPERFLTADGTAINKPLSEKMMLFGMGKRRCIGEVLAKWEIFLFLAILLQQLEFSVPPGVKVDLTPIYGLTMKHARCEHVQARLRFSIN
Procedure: (§1) Inhibition of the five most important Cytochrome P450 isoforms (CYP1A2, CYP2C9, CYP2C19, CYP2D6 and CYP3A4), involved in drug metabolism, was measured using specific substrates that become fluorescent upon CYP metabolism (Gentest Kit assay).
(§2) Compounds were tested in a 96-well plate containing incubation/NADPH regenerating buffer. Specific human recombinant isoenzymes and substrates were added and incubated at 37° C. for 15 min for CYP1A2/CEC, 40 min for CYP2E1/MFC, 45 min for CYP2C9/MFC and 30 min for the others CYP450.
(§3) The specific substrates were the following: 3-cyano-7-ethoxycoumarin (CYP2C19 and CYP1A2), • 7-methoxy-4-trifluoromethylcoumarin (CYP2C9), • 3[2(N,N-diethyl-N-methylamino)ethyl]-7-methoxy-4-methylcoumarin (CYP2D6) • benzylphenylcoumarin (CYP3A4)

[1] = system: human neuroblastoma cell line SH-SY-5Y; assay: Cytotoxicity assay in human neuroblastoma cell line SH-SY-5Y; assay type: cell-based
Procedure: (§4) At time zero, the cells were seeded at 1.10^4/cm^2 in 96 well plates in DMEM growth medium+10% heat inactivated FBS+2 mM 1-Glutamine+100 U/mL-100 μg/mL Penicillin/Streptomycin.
(§5) After 72 hours at subconfluent phase of growth, the medium was removed and cells were incubated for 24 hours at 37° C. in 180 μL of neurobasal medium+2 mM 1-Glutamine (Life Techonologies) with or without test compounds (20 μL, at least 5 concentrations in triplicate).
(§6) At the end of incubation, 20 μL of Alamar Blue dye (AlamarBlue™ Assay Kit, Promega) were directly added to the cell medium.
(§7) Four hours after, the cytotoxicity was assessed by measuring the fluorescence at 530 nm excitation and 595 nm emission using Tecan Spectrafluor plate reader.
(§8) Before and at the end of the treatment, the cultures were monitored microscopically by an Olympus IX70 inverted light microscope matched to an Image Analyzer (Image Pro Plus, 5.1) to evaluate the cellular morphology.
(§9) Results are expressed in Table 1 as concentration inducing 50% of mortality.

CYP2C9 = biological target: T2, CYP2C9 (Homo sapiens, UniProt P11712); assay: Cytochrome P450 assay (Gentest Kit), CYP2C9; assay type: in vitro ADME
T2 construct: purchased Gentest
T2 sequence (P11712 whole entry): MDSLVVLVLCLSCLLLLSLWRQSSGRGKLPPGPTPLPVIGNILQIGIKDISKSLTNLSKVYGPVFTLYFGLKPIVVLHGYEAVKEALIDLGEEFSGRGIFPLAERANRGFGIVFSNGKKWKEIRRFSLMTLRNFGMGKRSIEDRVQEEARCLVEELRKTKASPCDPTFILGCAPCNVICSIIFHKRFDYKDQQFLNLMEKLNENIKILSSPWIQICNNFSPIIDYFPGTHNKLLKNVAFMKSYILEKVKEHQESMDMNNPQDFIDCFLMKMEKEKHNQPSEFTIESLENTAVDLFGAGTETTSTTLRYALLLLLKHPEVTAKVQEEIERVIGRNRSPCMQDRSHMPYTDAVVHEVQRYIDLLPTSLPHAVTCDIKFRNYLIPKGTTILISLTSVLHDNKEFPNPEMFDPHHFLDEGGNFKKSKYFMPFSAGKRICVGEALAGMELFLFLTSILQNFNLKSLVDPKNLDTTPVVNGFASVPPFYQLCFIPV
Procedure: as §1, §2, §3

recombinant HERG channel [2] = biological target: T3, recombinant HERG channel (Homo sapiens, UniProt Q12809)
T3 sequence (Q12809 whole entry): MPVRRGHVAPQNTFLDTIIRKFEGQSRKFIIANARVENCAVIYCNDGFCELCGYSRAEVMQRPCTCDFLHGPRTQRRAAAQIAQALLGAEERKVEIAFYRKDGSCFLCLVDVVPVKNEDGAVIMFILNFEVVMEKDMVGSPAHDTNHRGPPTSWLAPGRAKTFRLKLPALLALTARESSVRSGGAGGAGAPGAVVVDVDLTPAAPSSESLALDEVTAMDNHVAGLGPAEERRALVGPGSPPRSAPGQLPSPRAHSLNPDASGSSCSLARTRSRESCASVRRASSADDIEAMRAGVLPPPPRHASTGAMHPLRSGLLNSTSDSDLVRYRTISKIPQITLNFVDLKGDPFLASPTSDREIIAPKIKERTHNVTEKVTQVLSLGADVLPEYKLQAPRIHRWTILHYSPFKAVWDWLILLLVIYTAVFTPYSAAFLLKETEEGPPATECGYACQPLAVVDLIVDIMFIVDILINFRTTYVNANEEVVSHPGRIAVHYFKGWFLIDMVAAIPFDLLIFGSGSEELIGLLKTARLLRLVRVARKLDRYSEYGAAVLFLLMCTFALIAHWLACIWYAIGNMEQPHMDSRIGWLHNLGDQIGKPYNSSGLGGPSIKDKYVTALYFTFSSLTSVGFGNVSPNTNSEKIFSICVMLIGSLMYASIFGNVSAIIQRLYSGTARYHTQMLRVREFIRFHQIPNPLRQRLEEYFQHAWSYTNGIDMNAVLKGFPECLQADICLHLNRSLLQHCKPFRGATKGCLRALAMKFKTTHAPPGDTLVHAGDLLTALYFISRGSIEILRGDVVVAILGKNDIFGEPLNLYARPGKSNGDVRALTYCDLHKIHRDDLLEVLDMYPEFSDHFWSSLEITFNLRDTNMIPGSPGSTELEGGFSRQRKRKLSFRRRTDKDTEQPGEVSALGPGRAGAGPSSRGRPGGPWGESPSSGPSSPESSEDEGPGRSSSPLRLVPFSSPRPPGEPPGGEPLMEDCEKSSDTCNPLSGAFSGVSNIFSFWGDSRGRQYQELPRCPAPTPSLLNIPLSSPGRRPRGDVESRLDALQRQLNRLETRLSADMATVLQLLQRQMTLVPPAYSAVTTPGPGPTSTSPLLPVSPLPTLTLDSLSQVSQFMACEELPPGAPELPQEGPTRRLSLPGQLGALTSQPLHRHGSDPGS
Procedure: (§10) The inhibition of HERG current was tested in CHO cells stably expressing recombinant HERG channel.
(§11) To evaluate the effect of the test compounds on HERG currents, cells were clamped at −80 mV, depolarised to 0 mV for 5 seconds allowing activation of HERG current and repolarised to −50 mV during 5 seconds allowing HERG tail current to deactivate. This procedure was repeated at a frequency of 0.06 Hz. The current amplitude upon repolarisation (HERG tail current) was measured before and after exposure to the test compound.
(§12) Inhibition of current was calculated as the difference between the amplitude of HERG tail current amplitude measured at the end of external bath perfusion period and HERG tail current measured at the end of test compound perfusion period (when steady-state effect is reached) divided by control HERG tail current.
(§13) Drug concentration-inhibition curves were obtained by plotting tonic blocks versus drug concentrations. Dose-response curves were fitted to the tonic block data, according to the logistic equation: y=A2+(A1−A2)/[1+(x/IC50)^p].

CYP2C19 = biological target: T4, CYP2C19 (Homo sapiens, UniProt P33261); assay: Cytochrome P450 assay (Gentest Kit), CYP2C19; assay type: in vitro ADME
T4 construct: purchased Gentest
T4 sequence (P33261 whole entry): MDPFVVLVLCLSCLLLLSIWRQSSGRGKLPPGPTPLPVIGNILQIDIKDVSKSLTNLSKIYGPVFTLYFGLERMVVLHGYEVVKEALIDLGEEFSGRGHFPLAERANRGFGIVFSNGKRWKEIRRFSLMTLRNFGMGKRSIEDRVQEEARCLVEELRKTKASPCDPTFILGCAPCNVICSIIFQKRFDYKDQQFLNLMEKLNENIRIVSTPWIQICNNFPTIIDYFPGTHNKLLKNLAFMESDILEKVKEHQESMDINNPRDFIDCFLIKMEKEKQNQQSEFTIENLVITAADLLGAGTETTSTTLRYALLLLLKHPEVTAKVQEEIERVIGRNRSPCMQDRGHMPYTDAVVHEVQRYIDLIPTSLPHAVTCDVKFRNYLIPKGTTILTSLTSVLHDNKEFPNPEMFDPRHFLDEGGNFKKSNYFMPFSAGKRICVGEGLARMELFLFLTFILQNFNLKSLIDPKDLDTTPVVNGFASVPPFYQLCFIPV
Procedure: as §1, §2, §3

CYP2D6 = biological target: T5, CYP2D6 (Homo sapiens, UniProt P10635); assay: Cytochrome P450 assay (Gentest Kit), CYP2D6; assay type: in vitro ADME
T5 construct: purchased Gentest
T5 sequence (P10635 whole entry): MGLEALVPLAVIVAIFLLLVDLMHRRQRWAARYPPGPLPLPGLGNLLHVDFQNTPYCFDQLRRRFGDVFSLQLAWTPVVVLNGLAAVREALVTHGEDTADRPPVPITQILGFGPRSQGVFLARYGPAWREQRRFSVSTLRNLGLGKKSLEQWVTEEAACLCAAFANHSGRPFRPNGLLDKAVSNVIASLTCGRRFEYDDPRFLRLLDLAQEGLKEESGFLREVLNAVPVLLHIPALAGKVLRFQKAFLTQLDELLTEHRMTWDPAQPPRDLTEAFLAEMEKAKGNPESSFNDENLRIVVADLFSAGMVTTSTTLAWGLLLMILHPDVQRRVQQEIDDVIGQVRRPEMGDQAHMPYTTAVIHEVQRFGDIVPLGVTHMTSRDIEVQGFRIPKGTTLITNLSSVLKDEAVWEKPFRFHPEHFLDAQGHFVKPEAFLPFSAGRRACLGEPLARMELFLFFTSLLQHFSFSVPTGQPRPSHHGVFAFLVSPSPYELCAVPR
Procedure: as §1, §2, §3

CYP3A4 = biological target: T6, CYP3A4 (Homo sapiens, UniProt P08684); assay: Cytochrome P450 assay (Gentest Kit), CYP3A4; assay type: in vitro ADME
T6 construct: purchased Gentest
T6 sequence (P08684 whole entry): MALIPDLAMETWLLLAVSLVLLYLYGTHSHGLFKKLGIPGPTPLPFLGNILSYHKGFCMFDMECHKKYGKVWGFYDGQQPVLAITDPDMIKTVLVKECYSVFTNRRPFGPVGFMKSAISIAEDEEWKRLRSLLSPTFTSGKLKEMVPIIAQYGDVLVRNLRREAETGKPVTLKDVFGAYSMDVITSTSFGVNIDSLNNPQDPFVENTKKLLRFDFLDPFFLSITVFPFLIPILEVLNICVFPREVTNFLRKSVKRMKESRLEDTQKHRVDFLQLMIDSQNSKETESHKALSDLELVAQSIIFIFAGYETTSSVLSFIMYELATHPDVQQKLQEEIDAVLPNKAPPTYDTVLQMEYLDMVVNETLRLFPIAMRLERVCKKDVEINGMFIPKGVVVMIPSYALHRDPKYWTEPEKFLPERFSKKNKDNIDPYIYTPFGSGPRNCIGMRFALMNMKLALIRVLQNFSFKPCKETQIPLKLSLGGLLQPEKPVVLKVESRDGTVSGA
Procedure: as §1, §2, §3

Male CD1 mice = assay type: in vivo
Procedure: The maximal electroshock test (MES) is used commonly in the screening of anti-epileptic drugs in rodent models.
Animals and Apparatus: Male CD1 mice weighing 25 g were used. […] The stimulus was delivered intra-aurally through clip electrodes in mice (0.7 seconds of a 40 mA shock, with a pulse train of 80 Hz having a pulse duration of 0.4 ms). The acute effect of compounds administered intraperitoneally or orally 15-60 min before MES induction were examined and compared with a vehicle control group. Ten mice were studied per group. Complete suppression of the hindlimb tonic extensor component of seizures was taken as evidence of anticonvulsant activity.
The compounds of the invention were administered orally or intraperitoneally at the doses of 3-30 mg/kg.
The results are expressed in Tables 3 and 4 as % of protection.

[3] = Cytotoxicity assay in human neuroblastoma cell line SH-SY-5Y; assay type: cell-based; settings: human, SH-SY-5Y neuroblastoma cells; SH-SY-5Y, 24 hours incubation, Alamar Blue; concentration inducing 50% of mortality
Procedure: as §4, §5, §6, §7, §8, §9

recombinant HERG channel [4] = biological target: T3, recombinant HERG channel; assay: HERG current in transfected CHO cell lines
Procedure: as §10, §11, §12, §13

[5] = human recombinant isoenzyme, substrate 7-methoxy-4-trifluoromethylcoumarin, read-out: CYP2C9 IC50
[6] = human recombinant isoenzyme, substrate 3-cyano-7-ethoxycoumarin, read-out: CYP2C19 IC50
[7] = human recombinant isoenzyme, fluorescent substrate, read-out: CYP2D6 IC50
[8] = Table 1, human recombinant isoenzyme, substrate benzylphenylcoumarin, read-out: CYP3A4 IC50

Compound: CS(=O)(=O)O.C[C@H](NCc1ccc(OCc2cccc(F)c2)c(Cc2cccc(F)c2)c1)C(N)=O [Impurity (IIc), (S)-2-[3-(3-fluorobenzyl)-4-(3-fluorobenzyloxy)-benzylamino]propanamide methanesulfonate]
MES dead/live (Male CD1 mice; mice, 3 mg/kg ip): 5/10
MES dead/live (Male CD1 mice; mice, 10 mg/kg ip): 4/10
MES dead/live (Male CD1 mice; mice, 30 mg/kg ip): 4/10
pharmacological activity, i.e. protection from convulsions, in MES test (in words) (Male CD1 mice; mice, ip, from 3 mg/kg): without any pharmacological activity
mortality in the mice MES test (in words) (Male CD1 mice; starting from 3 mg/kg ip): increases

Compound: CS(=O)(=O)O.C[C@H](NCc1ccc(OCc2ccccc2F)c(Cc2ccccc2F)c1)C(N)=O [Impurity (IId), (S)-2-[3-(2-fluorobenzyl)-4-(2-fluorobenzyloxy)-benzylamino]propanamide methanesulfonate]
MES dead/live (Male CD1 mice; mice, 10 mg/kg p.o.): 0/10
MES dead/live (Male CD1 mice; mice, 20 mg/kg p.o.): 0/10
protection of mice from convulsions in MES test (in words) (Male CD1 mice; p.o. at 10 and 20 mg/kg, compared with same doses of ralfinamide methanesulfonate): doesn't protect mice from convulsions

Compound: C[C@@H](NCc1ccc(OCc2cccc(F)c2)c(Cc2cccc(F)c2)c1)C(N)=O (racemic) [Impurity (IIc, II′c), (R,S)-2-[3-(3-fluorobenzyl)-4-(3-fluorobenzyloxy)-benzylamino]propanamide methanesulfonate]
IC50 (CYP1A2): 28000 nM
IC50 [1]: 11800 nM
IC50 (CYP2C9): 5570 nM
IC50 (recombinant HERG channel [2]): < 1000 nM
IC50 (CYP2C19): 170 nM
IC50 (CYP2D6): 310 nM
IC50 (CYP3A4): 60 nM

Compound: CS(=O)(=O)O.C[C@H](NCc1ccc(OCc2cccc(F)c2)cc1)C(N)=O [Safinamide methanesulfonate (Ic), (S)-2-[4-(3-fluorobenzyloxy)benzylamino]propanamide methanesulfonate, reference compound]
MES % protection (Male CD1 mice; mice, 3 mg/kg ip): 50%
MES % protection (Male CD1 mice; mice, 10 mg/kg ip): 100%
MES % protection (Male CD1 mice; mice, 30 mg/kg ip): 100%

The next lines start with results.

IC50 (CYP1A2): 39400 nM
IC50 (CYP2C9): 4960 nM
IC50 (CYP2C19): 30 nM
IC50 (CYP2D6): 1190 nM
IC50 (CYP3A4): 60 nM
Compound: C[C@@H](NCc1ccc(OCc2ccccc2F)c(Cc2ccccc2F)c1)C(N)=O (racemic) [Impurity (IId, II′d), (R,S)-2-[3-(2-fluorobenzyl)-4-(2-fluorobenzyloxy)-benzylamino]propanamide methanesulfonate]
IC50 [1]: 14300 nM
IC50 (recombinant HERG channel [2]): < 1000 nM

IC50 (CYP1A2; human recombinant isoenzyme, substrate 3-cyano-7-ethoxycoumarin, read-out: CYP1A2 IC50): 29200 nM
IC50 (CYP2C9; [5]): 4940 nM
IC50 (CYP2C19; [6]): 150 nM
IC50 (CYP2D6; [7]): 150 nM
IC50 (CYP3A4; [8]): 90 nM
Compound: C[C@@H](NCc1ccc(OCc2cccc(F)c2)c(Cc2cccc(F)c2)c1)C(N)=O [Impurity (II′c), (R)-2-[3-(3-fluorobenzyl)-4-(3-fluorobenzyloxy)-benzylamino]propanamide methanesulfonate]
IC50 at 24 h [3]: 8810 nM
IC50 (recombinant HERG channel [4]): < 1000 nM

IC50 at 15 min (CYP1A2; recombinant human CYP1A2, probe 3-cyano-7-ethoxycoumarin, human recombinant isoenzyme, substrate 3-cyano-7-ethoxycoumarin): > 40000 nM
IC50 (CYP2C9; [5]): 4340 nM
IC50 (CYP2C19; [6]): 30 nM
IC50 (CYP2D6; [7]): 620 nM
IC50 (CYP3A4; [8]): 70 nM
Compound: C[C@@H](NCc1ccc(OCc2ccccc2F)c(Cc2ccccc2F)c1)C(N)=O [Impurity (II′d), (R)-2-[3-(2-fluorobenzyl)-4-(2-fluorobenzyloxy)-benzylamino]propanamide methanesulfonate]
IC50 at 24 h [3]: 11500 nM
IC50 (recombinant HERG channel [4]): < 1000 nM
